Measured values taken from patent US12428408B2, “Fused heterocyclic mescaline derivatives” (Enveric Biosciences Canada Inc., priority 2022, dated 2025).
pEC50, pKi: −log10 of the molar value. Read-outs that look alike come from different tables or passages of the source.

What was measured:
5-HT1A receptor [1] = biological target: T1, 5-HT1A receptor (Homo sapiens, UniProt P08908); assay: 5-HT1A receptor radioligand competition assay (SPA); type: binding; details: competition with 0.5 nM 8-hydroxy-DPAT [3H]; test compound 3 nM to 1 mM; read-out: 5-HT1A, Ki
T1 construct: purchased Perkin Elmer 6110501400UA
T1 sequence (P08908 1-422): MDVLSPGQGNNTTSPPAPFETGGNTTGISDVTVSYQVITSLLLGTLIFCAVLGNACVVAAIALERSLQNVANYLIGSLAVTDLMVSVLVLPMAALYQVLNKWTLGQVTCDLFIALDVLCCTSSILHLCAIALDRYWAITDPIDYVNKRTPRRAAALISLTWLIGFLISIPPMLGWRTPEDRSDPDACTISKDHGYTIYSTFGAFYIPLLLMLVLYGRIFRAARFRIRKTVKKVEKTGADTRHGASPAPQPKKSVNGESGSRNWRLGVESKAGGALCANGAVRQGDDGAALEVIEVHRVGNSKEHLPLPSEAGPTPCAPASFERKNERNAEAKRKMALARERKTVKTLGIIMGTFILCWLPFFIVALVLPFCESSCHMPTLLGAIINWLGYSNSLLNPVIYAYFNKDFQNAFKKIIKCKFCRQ

5-HT1A receptor [2] = biological target: T1, 5-HT1A receptor; assay: Functional 5-HT1A receptor cAMP assay in CHO-K1/5-HT1A/Gα15 cells; type: cell-based; details: for 5-HT1A receptor engagement (change in cAMP levels), in words: +5-HT1A cells, 4 μM forskolin, FIGS. 37B-37H
[3] = biological target: T2, human serotonin transporter (SERT) (Homo sapiens, UniProt P31645); assay: biochemical; type: binding
T2 construct: purchased PerkinElmer RBHSTM400UA

5-HT1B (h) = biological target: T3, 5-HT1B (h) (Homo sapiens, UniProt P28222); assay: Competition assay to measure binding affinity at 5-HT1B receptor; details: test ligand 10 μM; [3H]GR125743 1 nM
T3 construct: host or cells: Chem-1 (RBL) cells

5-HT1D (r) = biological target: T4, 5-HT1D (r) (Rattus norvegicus, UniProt P28565); assay: Competition assay to measure binding affinity at 5-HT1D receptor; details: test ligand 10 μM; [3H]serotonin 1 nM
T4 construct: host or cells: CHO cells

5-HT2B (h) = biological target: T5, 5-HT2B (h) (Homo sapiens, UniProt P41595); assay: Competition assay to measure binding affinity at 5-HT2B receptor; details: test ligand 10 μM; [3H]mesulergine 2 nM
T5 construct: host or cells: CHO cells

5-HT7 (h) = biological target: T6, 5-HT7 (h) (Homo sapiens, UniProt P34969); assay: Competition assay to measure binding affinity at 5-HT7 receptor; details: test ligand 10 μM; [3H]LSD 4 nM
T6 construct: host or cells: HEK-293 cells

alpha2A (h) = biological target: T7, alpha2A (h) (Homo sapiens, UniProt P08913); assay: Competition assay to measure binding affinity at alpha2A receptor; details: test ligand 10 μM, [3H]RX 821002 1 nM; for inhibition at 10 µM: read-out: α-2A, percent of control-specific binding
T7 construct: host or cells: CHO cells
T7 sequence (P08913 1-465): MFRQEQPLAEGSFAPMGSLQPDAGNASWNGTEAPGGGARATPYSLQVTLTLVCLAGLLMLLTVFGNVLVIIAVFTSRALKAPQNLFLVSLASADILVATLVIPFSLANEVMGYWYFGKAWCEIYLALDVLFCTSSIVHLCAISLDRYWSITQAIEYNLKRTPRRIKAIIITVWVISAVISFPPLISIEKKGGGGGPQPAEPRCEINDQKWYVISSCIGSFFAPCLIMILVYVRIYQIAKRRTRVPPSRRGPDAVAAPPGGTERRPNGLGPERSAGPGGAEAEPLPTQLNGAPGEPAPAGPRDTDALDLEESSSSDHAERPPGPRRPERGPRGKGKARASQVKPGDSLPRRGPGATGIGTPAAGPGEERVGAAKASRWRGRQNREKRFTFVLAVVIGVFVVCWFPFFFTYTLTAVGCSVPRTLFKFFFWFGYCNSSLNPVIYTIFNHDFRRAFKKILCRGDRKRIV

D2 (h) = biological target: T8, D2 (h) (Homo sapiens, UniProt P14416); assay: Competition assay to measure binding affinity at D2L receptor; details: test ligand 10 μM; [3H]methylspiperone 0.3 nM
T8 construct: host or cells: HEK-293 cells

D3 (h) = biological target: T9, D3 (h) (Homo sapiens, UniProt P35462); assay: Competition assay to measure binding affinity at D3 receptor; details: test ligand 10 μM; [3H]methylspiperone […]
T9 construct: host or cells: CHO cells

DAT (h) = biological target: T10, DAT (h) (Homo sapiens, UniProt Q01959); assay: Competition assay to measure binding affinity at dopamine transporter (DAT); details: test ligand 10 μM; [3H]BTCP 4 nM
T10 construct: host or cells: CHO cells

MT1 (ML1A) (h) = biological target: T11, MT1 (ML1A) (h) (Homo sapiens, UniProt P48039); assay: Competition assay to measure binding affinity at MT1 receptor; details: test ligand 10 μM; [125I]2-iodomelatonin 0.01 nM
T11 construct: host or cells: CHO cells

NET (h) = biological target: T12, NET (h) (Homo sapiens, UniProt P23975); assay: Competition assay to measure binding affinity at norepinephrine transporter (NET); details: test ligand 10 μM; [3H]nisoxetine 1 nM
T12 construct: host or cells: CHO cells

5-HT2A receptor = 5-HT2A receptor (Homo sapiens, UniProt P28223); assay: 5-HT2A receptor radioligand competition assay (SPA)
5-HT2C (h) = biological target: T13, 5-HT2C (h) (Homo sapiens, UniProt P28335); assay: Competition assay to measure binding affinity at 5-HT2C receptor; details: test ligand 10 μM; [125I](±)DOI 0.1 nM
T13 construct: host or cells: HEK-293 cells
T13 sequence (P28335 33-458): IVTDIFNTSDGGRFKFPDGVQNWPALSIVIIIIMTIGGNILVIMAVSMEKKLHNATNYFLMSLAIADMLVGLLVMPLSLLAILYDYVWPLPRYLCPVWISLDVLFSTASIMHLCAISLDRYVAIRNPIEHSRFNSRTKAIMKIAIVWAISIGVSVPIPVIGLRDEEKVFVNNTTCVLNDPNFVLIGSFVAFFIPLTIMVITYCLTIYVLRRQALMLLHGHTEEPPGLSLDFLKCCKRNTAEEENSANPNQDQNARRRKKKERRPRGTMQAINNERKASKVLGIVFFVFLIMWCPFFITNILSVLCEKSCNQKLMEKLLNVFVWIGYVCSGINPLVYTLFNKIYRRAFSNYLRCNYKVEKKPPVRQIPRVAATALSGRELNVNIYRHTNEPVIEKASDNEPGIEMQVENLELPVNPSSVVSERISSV

[4] = reduction of cAMP in +5-HT1A cells stimulated with 4 μM forskolin, 20 min, read-out: 5-HT1A, EC50
[5] = read-out: 5-HT2A, Ki, competition with 1 nM [3H]ketanserin, test compound 3 nM to 1 mM

T10 sequence (Q01959 whole entry): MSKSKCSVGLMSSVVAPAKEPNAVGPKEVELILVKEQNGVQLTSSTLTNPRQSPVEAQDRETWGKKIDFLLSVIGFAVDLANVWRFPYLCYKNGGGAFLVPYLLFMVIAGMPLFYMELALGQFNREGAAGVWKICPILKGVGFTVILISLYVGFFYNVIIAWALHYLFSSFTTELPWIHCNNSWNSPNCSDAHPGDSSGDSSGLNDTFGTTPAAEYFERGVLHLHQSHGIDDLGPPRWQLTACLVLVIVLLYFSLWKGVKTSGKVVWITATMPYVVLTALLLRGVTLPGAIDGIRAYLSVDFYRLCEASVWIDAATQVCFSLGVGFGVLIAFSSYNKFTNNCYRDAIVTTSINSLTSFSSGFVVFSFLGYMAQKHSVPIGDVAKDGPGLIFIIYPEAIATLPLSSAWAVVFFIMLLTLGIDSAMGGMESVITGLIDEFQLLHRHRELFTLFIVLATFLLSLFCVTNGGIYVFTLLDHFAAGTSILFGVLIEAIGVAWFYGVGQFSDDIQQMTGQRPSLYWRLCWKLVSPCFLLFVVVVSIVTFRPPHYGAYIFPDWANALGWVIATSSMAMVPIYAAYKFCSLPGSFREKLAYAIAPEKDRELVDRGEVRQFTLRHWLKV
T3 sequence (P28222 whole entry): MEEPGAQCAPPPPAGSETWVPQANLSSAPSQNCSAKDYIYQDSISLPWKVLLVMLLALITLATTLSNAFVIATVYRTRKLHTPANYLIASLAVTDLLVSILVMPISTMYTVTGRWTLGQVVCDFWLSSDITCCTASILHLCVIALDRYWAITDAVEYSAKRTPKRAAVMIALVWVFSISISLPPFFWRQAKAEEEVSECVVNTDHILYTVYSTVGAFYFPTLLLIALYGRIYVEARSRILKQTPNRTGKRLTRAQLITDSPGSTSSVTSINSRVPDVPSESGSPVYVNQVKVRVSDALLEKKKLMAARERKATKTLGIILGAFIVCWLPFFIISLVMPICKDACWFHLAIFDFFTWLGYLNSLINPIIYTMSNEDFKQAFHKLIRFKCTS
T8 sequence (P14416 whole entry): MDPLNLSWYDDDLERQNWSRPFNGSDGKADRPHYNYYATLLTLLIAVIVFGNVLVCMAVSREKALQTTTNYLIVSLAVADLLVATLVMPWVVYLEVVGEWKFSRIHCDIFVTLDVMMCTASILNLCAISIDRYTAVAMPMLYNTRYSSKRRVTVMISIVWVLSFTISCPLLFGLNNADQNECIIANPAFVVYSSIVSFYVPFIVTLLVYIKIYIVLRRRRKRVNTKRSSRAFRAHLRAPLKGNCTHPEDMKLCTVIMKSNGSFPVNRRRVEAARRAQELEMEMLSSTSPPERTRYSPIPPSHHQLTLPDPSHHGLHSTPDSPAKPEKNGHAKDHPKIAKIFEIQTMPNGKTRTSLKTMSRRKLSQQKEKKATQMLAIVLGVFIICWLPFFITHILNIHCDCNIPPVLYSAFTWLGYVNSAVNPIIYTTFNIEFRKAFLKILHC
T11 sequence (P48039 whole entry): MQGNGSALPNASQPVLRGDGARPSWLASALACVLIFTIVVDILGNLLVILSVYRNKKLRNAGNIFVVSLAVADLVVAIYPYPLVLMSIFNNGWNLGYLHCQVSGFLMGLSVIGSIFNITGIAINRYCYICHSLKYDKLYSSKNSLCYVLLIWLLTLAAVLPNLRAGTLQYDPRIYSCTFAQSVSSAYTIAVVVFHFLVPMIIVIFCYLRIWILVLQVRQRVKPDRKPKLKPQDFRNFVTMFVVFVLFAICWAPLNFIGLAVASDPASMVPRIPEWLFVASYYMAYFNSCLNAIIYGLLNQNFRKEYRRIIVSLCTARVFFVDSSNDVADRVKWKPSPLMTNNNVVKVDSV
T4 sequence (P28565 whole entry): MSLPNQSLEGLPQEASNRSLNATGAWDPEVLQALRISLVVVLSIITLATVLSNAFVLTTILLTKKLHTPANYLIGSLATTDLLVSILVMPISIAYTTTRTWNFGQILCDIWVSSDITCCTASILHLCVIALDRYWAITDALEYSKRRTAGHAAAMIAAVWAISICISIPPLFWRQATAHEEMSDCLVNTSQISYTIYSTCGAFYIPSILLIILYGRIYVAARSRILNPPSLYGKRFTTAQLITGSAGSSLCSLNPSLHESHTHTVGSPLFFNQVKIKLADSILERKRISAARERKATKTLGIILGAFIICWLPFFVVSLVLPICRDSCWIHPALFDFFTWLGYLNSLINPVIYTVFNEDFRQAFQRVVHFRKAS
T12 sequence (P23975 whole entry): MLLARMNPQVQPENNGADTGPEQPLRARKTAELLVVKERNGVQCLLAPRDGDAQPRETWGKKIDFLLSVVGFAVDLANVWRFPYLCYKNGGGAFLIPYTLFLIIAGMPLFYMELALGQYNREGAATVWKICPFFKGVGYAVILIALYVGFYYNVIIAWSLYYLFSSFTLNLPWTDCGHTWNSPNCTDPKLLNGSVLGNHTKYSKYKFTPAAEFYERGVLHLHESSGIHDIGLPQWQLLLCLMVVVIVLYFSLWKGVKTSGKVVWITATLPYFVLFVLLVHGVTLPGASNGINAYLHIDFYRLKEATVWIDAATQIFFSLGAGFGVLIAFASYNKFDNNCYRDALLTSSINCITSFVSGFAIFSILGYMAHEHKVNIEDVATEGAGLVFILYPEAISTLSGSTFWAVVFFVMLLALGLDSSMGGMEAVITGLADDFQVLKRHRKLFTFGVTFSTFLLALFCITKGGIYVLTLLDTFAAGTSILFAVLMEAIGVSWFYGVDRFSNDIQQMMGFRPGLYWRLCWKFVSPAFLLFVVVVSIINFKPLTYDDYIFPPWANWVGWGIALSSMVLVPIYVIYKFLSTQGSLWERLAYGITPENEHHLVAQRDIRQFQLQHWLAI
T5 sequence (P41595 whole entry): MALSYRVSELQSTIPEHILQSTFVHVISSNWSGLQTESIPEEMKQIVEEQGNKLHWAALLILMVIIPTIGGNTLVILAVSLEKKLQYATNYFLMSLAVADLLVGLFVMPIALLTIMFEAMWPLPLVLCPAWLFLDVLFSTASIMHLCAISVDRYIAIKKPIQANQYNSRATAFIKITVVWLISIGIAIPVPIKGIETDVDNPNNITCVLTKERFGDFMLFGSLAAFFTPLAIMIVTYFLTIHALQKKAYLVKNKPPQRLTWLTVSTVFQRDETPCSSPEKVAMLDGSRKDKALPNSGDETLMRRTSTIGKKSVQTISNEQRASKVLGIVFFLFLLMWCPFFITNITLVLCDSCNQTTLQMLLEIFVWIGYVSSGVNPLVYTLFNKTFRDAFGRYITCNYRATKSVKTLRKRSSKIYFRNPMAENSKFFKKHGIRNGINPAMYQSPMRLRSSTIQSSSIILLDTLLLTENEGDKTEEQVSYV
Chain of 5-HT2A receptor (P28223 whole entry): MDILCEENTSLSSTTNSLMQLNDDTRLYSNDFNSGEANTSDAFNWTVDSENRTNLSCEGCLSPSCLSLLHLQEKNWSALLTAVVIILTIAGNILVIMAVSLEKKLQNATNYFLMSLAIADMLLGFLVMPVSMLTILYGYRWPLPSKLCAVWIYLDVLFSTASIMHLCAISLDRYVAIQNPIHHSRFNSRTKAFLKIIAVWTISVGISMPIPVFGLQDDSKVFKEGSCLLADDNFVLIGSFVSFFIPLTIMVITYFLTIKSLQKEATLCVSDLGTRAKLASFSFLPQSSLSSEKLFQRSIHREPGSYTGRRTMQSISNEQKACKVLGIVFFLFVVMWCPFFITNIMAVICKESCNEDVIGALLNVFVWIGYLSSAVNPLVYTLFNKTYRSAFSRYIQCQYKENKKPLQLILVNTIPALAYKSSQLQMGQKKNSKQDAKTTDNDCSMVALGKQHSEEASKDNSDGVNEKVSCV
T9 sequence (P35462 whole entry): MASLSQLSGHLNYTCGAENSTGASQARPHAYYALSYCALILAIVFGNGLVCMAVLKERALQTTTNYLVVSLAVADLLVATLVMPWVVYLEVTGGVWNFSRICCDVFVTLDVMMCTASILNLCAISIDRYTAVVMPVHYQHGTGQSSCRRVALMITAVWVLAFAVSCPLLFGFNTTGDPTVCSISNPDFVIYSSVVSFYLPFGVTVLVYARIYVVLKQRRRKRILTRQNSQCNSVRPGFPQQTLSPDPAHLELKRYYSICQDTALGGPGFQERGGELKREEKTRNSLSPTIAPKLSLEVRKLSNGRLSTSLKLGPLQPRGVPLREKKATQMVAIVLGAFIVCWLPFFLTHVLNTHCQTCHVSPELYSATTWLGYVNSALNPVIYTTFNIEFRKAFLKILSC
T2 sequence (P31645 whole entry): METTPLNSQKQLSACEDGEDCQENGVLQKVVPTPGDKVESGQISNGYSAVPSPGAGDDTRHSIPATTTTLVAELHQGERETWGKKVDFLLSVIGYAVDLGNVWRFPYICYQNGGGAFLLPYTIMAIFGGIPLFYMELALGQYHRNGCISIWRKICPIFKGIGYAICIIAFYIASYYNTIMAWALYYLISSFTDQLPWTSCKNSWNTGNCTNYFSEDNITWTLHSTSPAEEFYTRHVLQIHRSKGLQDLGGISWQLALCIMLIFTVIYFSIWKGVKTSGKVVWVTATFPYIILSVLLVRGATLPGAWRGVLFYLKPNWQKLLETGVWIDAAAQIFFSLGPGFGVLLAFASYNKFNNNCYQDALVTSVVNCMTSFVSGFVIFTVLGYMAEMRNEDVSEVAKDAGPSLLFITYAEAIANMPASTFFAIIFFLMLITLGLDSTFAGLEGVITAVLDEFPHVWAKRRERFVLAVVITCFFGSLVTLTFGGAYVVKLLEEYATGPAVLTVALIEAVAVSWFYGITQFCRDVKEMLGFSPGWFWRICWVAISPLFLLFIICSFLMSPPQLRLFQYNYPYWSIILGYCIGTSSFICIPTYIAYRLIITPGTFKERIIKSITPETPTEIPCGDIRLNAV

Row | SMILES | pKi (5-HT1A receptor [1]) | 5-HT1A receptor engagement (change in cAMP levels), in words (5-HT1A receptor [2]) | SERT binding, binding curve in words [3] | HT1B, percent of control-specific binding (5-HT1B (h)) [%] | HT1D, percent of control-specific binding (5-HT1D (r)) [%] | HT2B, percent of control-specific binding (5-HT2B (h)) [%] | HT7, percent of control-specific binding (5-HT7 (h)) [%] | D2, percent of control-specific binding (D2 (h)) [%] | D3, percent of control-specific binding (D3 (h)) [%] | DAT, percent of control-specific binding (DAT (h)) [%] | MT1, percent of control-specific binding (MT1 (ML1A) (h)) [%] | NET, percent of control-specific binding (NET (h)) [%] | pEC50 (5-HT1A receptor [2]) | pKi [3] | HT2C, percent of control-specific binding (5-HT2C (h)) [%] | inhibition at 10 µM (alpha2A (h)) [%] | pKi (5-HT2A receptor) | other results
1 | COc1cc(CCN)c(OC)cc1Br [2C-B, reference compound] | 6.70 | reduction in cAMP levels | bind SERT to varying degrees | 77 | 100 | 99 | 88 | 42 | 43 | 5 | 86 | 13 | – | – | – | – | – | pEC50 (5-HT1A receptor [2]; [4]): 5.23; pKi ([3]; read-out: SERT, Ki): 4.94; α-2A, percent of control-specific binding (alpha2A (h)): 88%; pKi (5-HT2A receptor; [5]): 6.38
2 | COc1cc2c(cc1CCN1CCCC1)OCO2 [A(XIV)] | 7.34 | receptor modulation at evaluated ligand concentrations | – | 7 | 28 | 63 | 75 | 12 | 46 | 0 | 7 | 0 | 5.93 | 4.63 | 90 | 54 | 4.96 | –
3 | COc1cc2c(cc1CCNCCO)OCO2 [A(XXIV)] | 6.00 | – | – | 0 | 29 | 43 | 35 | 7 | 13 | 5 | 0 | 0 | 4.49 | 4.28 | 76 | 11 | 4.59 | –
4 | c1cc(CCN2CCCC2)c2c(c1)OCO2 [A(XXIX)] | 7.88 | – | – | 3 | 44 | 48 | 48 | 0 | 22 | 49 | 1 | 2 | 6.45 | 5.00 | 87 | 57 | 5.10 | –
5 | Brc1cc2c(cc1CCN1CCCC1)OCO2 [A(XXV)] | 7.20 | – | – | 0 | 30 | 76 | 71 | 21 | 70 | 11 | 1 | 28 | 6.47 | 4.96 | 87 | 61 | 5.12 | –
6 | FC1(F)Oc2ccc(CCN3CCCC3)cc2O1 [A(XXVIII)] | 5.70 | – | – | 0 | 1 | 15 | 15 | 6 | 16 | 0 | 0 | 0 | 3.43 | 4.62 | 53 | 26 | 4.81 | –
7 | OCCNCCc1cc2c(cc1Br)OCO2 [A(XXX)] | 6.53 | – | – | 0 | 39 | 54 | 61 | 4 | 30 | 0 | 0 | 6 | 4.93 | 4.07 | 57 | 6 | 4.93 | –
8 | CNC(C)Cc1ccc2c(c1)OCO2 (centres unmarked) [MDMA, reference compound] | 4.96 | mild | bind SERT to varying degrees | −21 | 18 | 85 | 58 | −10 | 18 | 28 | 1 | 3 | – | – | 96 | – | – | pEC50 (5-HT1A receptor [2]; [4]): < 3.00; pKi ([3]; read-out: SERT, Ki): 5.24; α-2A, percent of control-specific binding (alpha2A (h)): 27%; pKi (5-HT2A receptor; [5]): 4.40
9 | COc1cc(CCN)cc(OC)c1OC [mescaline, 3,4,5 trimethoxyphenethylamine] | – | no | SERT binding at higher ligand concentrations | 11 | 70 | 80 | – | 3 | −13 | −1 | 6 | −9 | – | 3.39 | 95 | 57 | – | –
